Data published in US11174244B2, “Isoquinolin-3-yl carboxamides and preparation and use thereof” (BioSplice Therapeutics, Inc., priority 2016, dated 2021).
Each block holds one compound with its values, some of them ahead of it.

Experiments:
[1] = test system: primary human fibroblasts derived from IPF patients (LL29 cells); assay: Fibrosis assay: αSMA staining in TGF-β1 treated LL29 fibroblasts; type: cell-based; conditions: for EC50: LL29 fibroblasts treated with TGF-β1, 4 days, αSMA, dose-response 10 μM to […]
IL-6 = IL-6 inhibition (HTRF) in LPS-stimulated human peripheral blood mononuclear cells; type: cell-based; conditions: IL-6 in LPS-stimulated huPBMCs; for value in parentheses after >10 (% inhibition at top concentration): where EC50 >10 μM; for EC50: 22 hours, dose-response starting from 10 μM
Procedure: After 22 hour incubation, a mixture of ani-IL6XL665 and anti-IL-6 Cryptate diluted in reconstitution buffer (Catalog #62IL6PEC, Cisbio Inc., Bedford, Mass.) was added to each well. […] All samples were processed in duplicate. […] EC50 was determined using software generated by Dotmatics Limited (Windhill Bishops Stortford Herts, UK) using the Levenberg-Marquardt 4 parameter fitting procedure with finite different gradients.

secreted Aβ40 peptide = assay: Secreted β-amyloid 40 (Aβ40) peptide assay in APP overexpressing SH-SY5Y-APP cells; type: cell-based; conditions: Homo sapiens, overnight (16-18 hours), supernatant
Procedure: SH-SY5Y cells were infected with lentivirus to overexpress amyloid (A4) beta precursor protein (APP), hereafter referred to as the SH-SY5Y-APP cells.
SH-SY5Y cells were seeded onto 6-well plates at 5.0×10
[formula] and incubated overnight at 37° C.
Polybrene added for permeability (H9268, Sigma). 24 hours post-transfection, the entire volume from each well was replaced with regular SH-SY5Y medium.
Puromycin-resistant cell were then expanded, harvested and banked. APP-overexpression was controlled by immunoblotting for total APP and Myc-DDK.
The cell assay procedure start 18 h prior to treatment, as SH-SY5Y-APP cells were seeded onto 96-well plates at 2.0×10^4
At this time, designated wells were seeded with SH-SY5Y cells that were seeded and treated with puromycin at 10
Cells were exposed overnight (16-18 hours) in a 37° C. incubator before supernatant was harvested. […] The original plates with seeded cells were tested for cytotoxicity by measure of adenosine triphosphate (ATP) release by adding CellTiter-Glo® diluted 1:4 in distilled water (G7573, Promega) and transferring lysed cells to a completely black 96-well plate to be read with the Cytation3. Plates containing supernatant were spun down at 1200 g for 10 minutes to remove any cellular debris. […]

GSK3β kinase = GSK3β kinase (Homo sapiens (Human), UniProt P49841); assay: GSK3β kinase activity assay (Ser/Thr 09 peptide Z-lyte, FRET); type: biochemical; conditions: method calls the values IC50
DYRK1A kinase = DYRK1A kinase (Homo sapiens (Human), UniProt Q13627); assay: DYRK1A kinase activity assay (Ser/Thr 18 peptide Z-lyte, FRET); type: biochemical; conditions: method calls the values IC50
Wnt activity = assay: Screening assay for Wnt activity (Sp5-Luc reporter gene assay in SW480 cells); type: cell-based, human; conditions: 36 to 48 hours
Procedure: The screening assay for Wnt activity is described as follows.
Following incubation, 15 μl of BriteLite Plus luminescence reagent (Perkin Elmer) was added to each well of the 384-well assay plates. The plates were placed on an orbital shaker for 2 min and then luminescence was quantified using the Envision (Perkin Elmer) plate reader.

[2] = test system: SW480 colon carcinoma cells; assay: Cell viability assay (CellTiter-Glo) in SW480 cells; type: cell-based, human; conditions: four days incubation
[3] = test system: Tau phosphorylation at Ser396 (pSer396); assay: Tau phosphorylation assay (pSer396 ELISA / western blot) in SH-SY5Y cells; type: cell-based, human; conditions: overnight (16-18 h) exposure
Procedure: Two days before treatment, cells were seeded onto 96 well plates at 5×10^4 cells/well.
Wells were visually checked for cell death or change in morphology and supernatants were tested for cytotoxicity by measurement of lactate dehydrogenase release (LDH, CytoToxOne kit, Promega) if necessary.
Cells were lysed with RIPA buffer complemented with phosphatase and protease inhibitors then lysates were spun down at 12,000 g for 10 min to remove any cellular debris. Lysates are then either directly tested for pSer396 by ELISA (Life Technology, Kit KHB7031) or loaded on NuPage Bis-Tris gels for western blot analysis. Colorimetric detection of ELISA signal is performed by Cytation3 plate reader (Biotek) and the chemiluminescence signal for HRP-linked antibodies used in western blotting is detected using a Carestream Image Station. The same pSer396 antibody is used for detection of pTau in both assays.

GSK3β kinase, sequence (P49841 whole entry): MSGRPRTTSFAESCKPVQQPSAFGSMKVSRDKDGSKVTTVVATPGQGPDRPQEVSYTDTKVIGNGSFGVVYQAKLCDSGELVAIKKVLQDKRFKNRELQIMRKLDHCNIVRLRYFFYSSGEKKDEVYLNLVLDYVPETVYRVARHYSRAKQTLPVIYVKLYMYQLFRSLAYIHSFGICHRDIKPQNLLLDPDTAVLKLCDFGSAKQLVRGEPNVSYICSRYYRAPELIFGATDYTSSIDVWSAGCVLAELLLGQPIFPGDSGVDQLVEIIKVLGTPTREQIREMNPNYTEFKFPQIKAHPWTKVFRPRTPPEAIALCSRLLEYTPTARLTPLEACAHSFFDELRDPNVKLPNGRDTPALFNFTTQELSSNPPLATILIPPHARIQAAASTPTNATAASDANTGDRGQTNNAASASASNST

Compound: CC(C)CN1CCC[C@@H](C(=O)Nc2cc3cc(-c4cnn5c4CN(CCF)CC5)ccc3cn2)C1 [Compound 1002, (R)—N-(6-(5-(2-Fluoroethyl)-4,5,6,7-tetrahydropyrazolo[1,5-a]pyrazin-3-yl)isoquinolin-3-yl)-1-isobutylpiperidine-3-carboxamide]
value in parentheses after >10 (% inhibition at top concentration) ([1]; LL29 fibroblasts treated with TGF-β1, where EC50 >10 μM): 27.5%

Compound: Cn1cc(-c2ccc3cnc(NC(=O)CN4C5CCC4CC5)cc3c2)nn1 [Compound 513, 2-(7-Azabicyclo[2.2.1]heptan-7-yl)-N-(6-(1-methyl-1H-1,2,3-triazol-4-yl)isoquinolin-3-yl)acetamide]
value in parentheses after >10 (% inhibition at top concentration) (IL-6): 14.5%

Compound: Cc1nnc(-c2ccc3cnc(NC(=O)CN4C5CCC4CC5)cc3c2)s1 [Compound 959, 2-(7-Azabicyclo[2.2.1]heptan-7-yl)-N-(6-(5-methyl-1,3,4-thiadiazol-2-yl)isoquinolin-3-yl)acetamide]
value in parentheses after >10 (% inhibition at top concentration) (IL-6): 6.1%

Compound: Cn1cncc1-c1ccc2cnc(NC(=O)C3C(C)(C)C3(C)C)cc2c1 [Compound 269, 2,2,3,3-Tetramethyl-N-[6-(3-methylimidazol-4-yl)-3-isoquinolyl]cyclopropanecarboxamide]
IC50 (secreted Aβ40 peptide): > 10 µM

Compound: Cc1nnc(-c2ccc3cnc(NC(=O)CN4C5CCC4COC5)cc3c2)s1 [Compound 962, 2-(3-Oxa-8-azabicyclo[3.2.1]octan-8-yl)-N-(6-(5-methyl-1,3,4-thiadiazol-2-yl)isoquinolin-3-yl)acetamide]
value in parentheses after >10 (% inhibition at top concentration) (IL-6): 9.6%

Compound: Cn1cc(-c2ccc3cnc(NC(=O)CN4C5CCC4COC5)cc3c2)cn1 [Compound 347, 2-(3-Oxa-8-azabicyclo[3.2.1]octan-8-yl)-N-(6-(1-methyl-1H-pyrazol-4-yl)isoquinolin-3-yl)acetamide]
value in parentheses after >10 (% inhibition at top concentration) (IL-6): 4.5%

EC50 (GSK3β kinase): 0.044 µM
EC50 (DYRK1A kinase): 0.0123 µM
EC50 (Wnt activity): 1.59 µM
EC50 [2]: 1.25 µM
EC50 [3]: 0.346 µM
EC50 (IL-6): 0.819 µM
Compound: N-(6-(1-Methyl-1H-pyrazol-4-yl)isoquinolin-3-yl)-2-(pyrrolidin-1-yl-2,2,5,5-d4)acetamide [Compound 315]
EC50 [1]: 1.82 µM

Compound: Cn1cc(-c2ccc3cnc(NC(=O)C4C(C)(C)C4(C)C)cc3c2)nn1 [Compound 277, 2,2,3,3-Tetramethyl-N-(6-(1-methyl-1H-1,2,3-triazol-4-yl)isoquinolin-3-yl) cyclopropane-1-carboxamide]
value in parentheses after >10 (% inhibition at top concentration) (IL-6): 4.0%

Compound: Cn1cc(-c2ccc3cnc(NC(=O)C45CCN(CC4)CC5)cc3c2)cn1 [Compound 1071, N-(6-(1-Methyl-1H-pyrazol-4-yl)isoquinolin-3-yl)quinuclidine-4-carboxamide]
value in parentheses after >10 (% inhibition at top concentration) (IL-6): 8.8%

EC50 (GSK3β kinase): 0.08 µM
EC50 (DYRK1A kinase): 0.0143 µM
EC50 (Wnt activity): 3.48 µM
EC50 [2]: 3.46 µM
EC50 [3]: 0.978 µM
EC50 (IL-6): 1.57 µM
Compound: N-(6-(1-Methyl-1H-pyrazol-4-yl)isoquinolin-3-yl)-2-(6-azaspiro[2.5]octan-6-yl)acetamide [Compound 296]
EC50 [1]: 1.96 µM
